Assay results taken from patent publication US20230276831A1, “Food/Beverage Article” (Kikkoman Corporation, priority 2020, published 2023).

Key:
[1] = system: Lactobacillus rennini (DSM 20253); experiment: Antimicrobial action of oxygen-containing heterocyclic compounds in soy sauce (Test Example 6); type: cell-based; design: key to Antimicrobial activity: A: The bacterial count decreases to less than 10% of the bacterial count of the control group.; B: The bacterial count decreases to 10% or more and less than 50% of the bacterial count of the control group.; C: The bacterial count decreases to 50% or more and less than 100% of the bacterial count of control group.; D: The bacterial count is the same as the bacterial count of the control group; conditions: salt 4% (w/v), alcohol 5% (v/v); for activity at 5 ppm / activity at 10 ppm / activity at 25 ppm / activity at 50 ppm / activity at 100 ppm / activity at 1 ppm: Loigolactobacillus rennini, DSM20253, 168 h; for activity at 5 ppm: test substance 5 ppm; for activity at 10 ppm: test substance 10 ppm; for activity at 25 ppm: test substance 25 ppm; for activity at 50 ppm: test substance 50 ppm; for activity at 100 ppm: test substance 100 ppm; for Antimicrobial activity / activity at 1 ppm: test substance 1 ppm
Procedure: (§1) Commercially available whole soybean soy sauce (produced by Kikkoman Corporation) was electrodialyzed and then concentrated under reduced pressure to produce soy sauce at a salt concentration of 0% (w/v) and an alcohol concentration of 0% (v/v). Then, salt and/or alcohol was added to the above-mentioned obtained soy sauce, and the mixture was then heat-treated to produce soy sauce at a salt concentration of 4% (w/v) and an alcohol concentration of 5% (v/v).
The test substance described in Table 20 was added to the above-mentioned produced soy sauce to concentrations of 1 to 100 ppm. Lactic acid bacteria (Lactobacillus rennini (DSM 20253)) were then added to 10^6 to 10^7 cells/mL and cultured at 30° C. for 7 days. After the culture, the number of lactic acid bacteria was measured using the GAM agar medium “Nissui”. Soy sauce to which licoricidin was not added was used as a control group, and the antimicrobial activity was evaluated in comparison with the number of lactic acid bacteria in the control group. The evaluation was performed using the criterion shown below.
• A: The bacterial count decreases to less than 10% of the bacterial count of the control group. • B: The bacterial count decreases to 10% or more and less than 50% of the bacterial count of control group. • C: The bacterial count decreases to 50% or more and less than 100% of the bacterial count of the control group. • D: The bacterial count is the same as the bacterial count of the control group. • -: Not evaluated

[2] = system: Lactobacillus fructivores (NBRC 13954); experiment: Antimicrobial action of oxygen-containing heterocyclic compounds in soy sauce (Test Example 7); type: cell-based; conditions: NBRC13954, 168 h, salt 4% (w/v), alcohol 5% (v/v); for activity at 0.1 ppm: test substance 0.1 ppm; for activity at 0.5 ppm: test substance 0.5 ppm; for activity at 1 ppm: test substance 1 ppm; for activity at 5 ppm: test substance 5 ppm; for activity at 25 ppm: test substance 25 ppm; for activity at 50 ppm: test substance 50 ppm
Procedure: as §1
The test substance described in Table 21 was added to the soy sauce produced in Test Example 6 to concentrations of 0.1 ppm, 0.5 ppm, 1 ppm, 5 ppm, 25 ppm, and 50 ppm. Lactic acid bacteria (Lactobacillus fructivores (NBRC 13954)) were then added to 10^4 to 10^5 cells/mL and cultured at 30° C. for 7 days. After the culture, the number of lactic acid bacteria was measured using Difco Lactobacilli MRS Agar. Soy sauce to which the test substance was not added was used as a control group, and the antimicrobial activity was evaluated in comparison with the number of lactic acid bacteria in the control group. The evaluation was performed using the following criterion.
• A: The bacterial count decreases to less than 10% of the bacterial count of a control group. • B: The bacterial count decreases to 10% or more and less than 50% of the bacterial count of the control group. • C: The bacterial count decreases to 50% or more and less than 100% of the bacterial count of the control group. • D: The bacterial count is the same as the bacterial count of the control group.

SMILES | activity at 5 ppm [1] [%] | activity at 10 ppm [1] [%] | activity at 25 ppm [1] [%] | activity at 50 ppm [1] [%] | activity at 100 ppm [1] [%] | Antimicrobial activity [1] | activity at 0.1 ppm [2] [%] | activity at 0.5 ppm [2] [%] | activity at 1 ppm [2] [%] | activity at 5 ppm [2] [%] | activity at 25 ppm [2] [%] | activity at 50 ppm [2] [%] | activity at 1 ppm [1] [%]
C=CC(C)(C)c1c(O)cc(OC)c2cc(-c3ccc(O)cc3O)c(=O)oc12 [Licoarylcoumarin, 3-(2,4-dihydroxyphenyl)-7-hydroxy-5-methoxy-8-(2-methyl-3-butene-2-yl)coumarin] | 50 to 100 | 50 to 100 | 10 to 50 | 10 to 50 | < 10 | D | 10 to 50 | 10 to 50 | 10 to 50 | 50 to 100 | 10 to 50 | 10 to 50 | –
COc1cc2oc(=O)c(-c3ccc(O)cc3O)cc2c(OC)c1CC=C(C)C [Glycyrin, 3-(2,4-dihydroxyphenyl)-5,7-dimethoxy-6-(3-methyl-2-butenyl)-2H-1-benzopyran-2-one] | 10 to 50 | 10 to 50 | < 10 | < 10 | < 10 | D | 10 to 50 | 10 to 50 | 10 to 50 | 10 to 50 | 10 to 50 | 10 to 50 | –
COc1c(CC=C(C)C)c(O)cc2c1C[C@H](c1ccc(O)cc1O)CO2 [Glyasperin C, (3R)-3β(2,4-dihydroxyphenyl)-5-methoxy-6-(3-methyl-2-butenyl)-3,4-dihydro-2H-1-benzopyran-7-ol] | 10 to 50 | 10 to 50 | < 10 | < 10 | < 10 | – | 10 to 50 | 10 to 50 | 10 to 50 | 10 to 50 | 10 to 50 | < 10 | 10 to 50
CC(C)=CCc1cc(-c2coc3cc(O)c(CC=C(C)C)c(O)c3c2=O)cc(O)c1O [Isoangustone A, 3-[3,4-dihydroxy-5-(3-methyl-2-butenyl)phenyl]-5,7-dihydroxy-6-(3-methyl-2-butenyl)-4H-chromen-4-one] | < 10 | < 10 | < 10 | < 10 | < 10 | – | 10 to 50 | 10 to 50 | 50 to 100 | 10 to 50 | < 10 | < 10 | 10 to 50
COc1cc2oc(-c3ccc(O)cc3O)cc2c(OC)c1CC=C(C)C [Gancaonin I, 5-(3-methyl-2-butenyl)-2-(2,4-dihydroxyphenyl)-4,6-dimethoxybenzofuran] | < 10 | < 10 | < 10 | < 10 | < 10 | – | 10 to 50 | 50 to 100 | 10 to 50 | 50 to 100 | 10 to 50 | < 10 | 50 to 100
COc1c(CC=C(C)C)c(O)cc2oc(=O)c(-c3ccc(O)cc3O)cc12 [Glycycoumarin, 3-(2,4-dihydroxyphenyl)-7-hydroxy-5-methoxy-6-(3-methyl-2-butenyl)-2H-1-benzopyran-2-one] | 10 to 50 | 10 to 50 | < 10 | < 10 | < 10 | D | 10 to 50 | 10 to 50 | 10 to 50 | 10 to 50 | < 10 | < 10 | –
CC(C)=CCc1c(O)c(CC=C(C)C)c2occ(-c3ccc(O)cc3)c(=O)c2c1O [8-(γ,γ-dimethylallyl)-wighteone, 6,8-bis(3-methyl-2-butenyl)-3-(4-hydroxyphenyl)-5,7-dihydroxy-4H-1-benzopyran-4-one] | < 10 | < 10 | < 10 | < 10 | < 10 | – | 10 to 50 | 10 to 50 | 10 to 50 | < 10 | < 10 | < 10 | 50 to 100
